Measured values: PMC12184311 (2025)

What was measured:
[1] = tested on: two-base-bulged 3WJ (DNA, junction) CGGAACGAAGCACTCG/CGAGTGCAGCGTGG/CCACGCTCGTTCCG; test: PAGE
[2] = tested on: one-base-bulged 3WJ (DNA, junction) CGGAACGAGCACTCG/CGAGTGCAGCGTGG/CCACGCTCGTTCCG; test: PAGE
[3] = tested on: mm3WJ (mismatched 3WJ) (DNA, junction) CGGAACGGCACTCG/CGAGTGCAGCGTGG/CCACGCACGTTCCG; test: PAGE
[4] = tested on: FAM-labelled DS-21 (dsDNA) (DNA, duplex) CCTTCACGCGAACGTAATCCT/AGGATTACGTTCGCGTGAAGG; test: microscale thermophoresis; details: Na+ 50 mM (NaOAc); 10 mM HEPES, 0.1% Tween, room temperature; tested 1.5 nM to 50 µM Pt-BIMA
[5] = tested on: DS-21 (dsDNA) (DNA, duplex) CCTTCACGCGAACGTAATCCT/AGGATTACGTTCGCGTGAAGG; test: MST competition, unlabelled DNA titrated; details: Na+ 50 mM (NaOAc); IC50 of competitor DNA, not of compound; 20 nM FAM-4WJ-22, 80 nM Pt-BIMA; 10 mM HEPES, 0.1% Tween-20
[6] = tested on: 4WJ-22 (DNA, junction) GCCTAGCATGATACTGCTACCG/CGGTAGCAGTACCGTTGGTGGC/GCCACCAACGGCGTCAACTGCC/GGCAGTTGACGTCATGCTAGGC; test: MST competition, unlabelled DNA titrated; details: Na+ 50 mM (NaOAc); IC50 of competitor DNA, not of compound; 20 nM FAM-4WJ-22, 80 nM Pt-BIMA; 10 mM HEPES, 0.1% Tween-20
[7] = tested on: Y fork (DNA, junction) CGCACGTACGGAACGGCACTCGCTTGCTCG/CGAGCAAGCGAGTGCAGCGTGGATACATGC; test: UV melting, 260 nm; details: Na+ (10 mM Na cacodylate, 50 mM NaOAc); 1 equivalent Pt-BIMA
[8] = tested on: FAM-labelled 4WJ-22 (FAM-4WJ) (DNA, junction) GCCTAGCATGATACTGCTACCG/CGGTAGCAGTACCGTTGGTGGC/GCCACCAACGGCGTCAACTGCC/GGCAGTTGACGTCATGCTAGGC; test: microscale thermophoresis; details: Na+ 50 mM (NaOAc); 10 mM HEPES, 0.1% Tween, room temperature; 20 nM DNA
[9] = tested on: 4WJ-22 (DNA, junction) GCCTAGCATGATACTGCTACCG/CGGTAGCAGTACCGTTGGTGGC/GCCACCAACGGCGTCAACTGCC/GGCAGTTGACGTCATGCTAGGC; test: UV melting, 260 nm; details: Na+ (10 mM Na cacodylate, 50 mM NaOAc); 1 equivalent Pt-BIMA, 0.05% DMSO; biphasic
[10] = tested on: 3WJ (DNA, junction) CGGAACGGCACTCG/CGAGTGCAGCGTGG/CCACGCTCGTTCCG; test: UV melting, 260 nm; details: Na+ (10 mM Na cacodylate, 50 mM NaOAc); 1 equivalent Pt-BIMA
[11] = tested on: 4WJ-22 (DNA, junction) GCCTAGCATGATACTGCTACCG/CGGTAGCAGTACCGTTGGTGGC/GCCACCAACGGCGTCAACTGCC/GGCAGTTGACGTCATGCTAGGC; test: PAGE gel shift; details: Mg2+ 10 mM (MgCl2); band widens, no distinct shift
[12] = tested on: 4WJ-FAM1 (DNA, junction) GCCTAGCATGATACTGCTACCG/CGGTAGCAGTACCGTTGGTGGC/GCCACCAACGGCGTCAACTGCC/GGCAGTTGACGTCATGCTAGGC; test: FRET, FAM emission; details: Na+ 50 mM (NaOAc); 10 mM HEPES; 5 µM DNA, 1 equivalent Pt-BIMA; FAM emission up about 3.5-fold
[13] = tested on: FAM-labelled 3WJ-18 (DNA, junction) GTGGCGAGAGCGACGATC/GATCGTCGCAGAGTTGAC/GTCAACTCTTCTCGCCAC; test: microscale thermophoresis; details: Na+ 50 mM (NaOAc); 10 mM HEPES, 0.1% Tween, room temperature; error exceeds value
[14] = tested on: DS-21 (dsDNA) (DNA, duplex) CCTTCACGCGAACGTAATCCT/AGGATTACGTTCGCGTGAAGG; test: UV melting, 260 nm; details: Na+ (10 mM Na cacodylate, 50 mM NaOAc); 1 equivalent Pt-BIMA

SMILES	binding [1]	binding [2]	binding [3]	binding [4]	IC50 [5] [µM]	IC50 [6]	ΔTm [7] [°C]	Kd [8]	ΔTm [9] [°C]	ΔTm [10] [°C]	binding [11]	binding [12]	Kd [13]	ΔTm [14] [°C]
[Pd+2].[Pd+2].c1ccc2c(c1)ncn2Cc1c2ccccc2c(Cn2cnc3ccccc32)c2ccccc12.c1ccc2c(c1)ncn2Cc1c2ccccc2c(Cn2cnc3ccccc32)c2ccccc12.c1ccc2c(c1)ncn2Cc1c2ccccc2c(Cn2cnc3ccccc32)c2ccccc12.c1ccc2c(c1)ncn2Cc1c2ccccc2c(Cn2cnc3ccccc32)c2ccccc12	yes	yes	yes	–	–	–	–	–	–	–	–	–	–	–
[Pt+2].[Pt+2].c1ccc2c(c1)ncn2Cc1c2ccccc2c(Cn2cnc3ccccc32)c2ccccc12.c1ccc2c(c1)ncn2Cc1c2ccccc2c(Cn2cnc3ccccc32)c2ccccc12.c1ccc2c(c1)ncn2Cc1c2ccccc2c(Cn2cnc3ccccc32)c2ccccc12.c1ccc2c(c1)ncn2Cc1c2ccccc2c(Cn2cnc3ccccc32)c2ccccc12	yes	yes	yes	no	> 25	2.88 ± 0.42 x 10^-8 M	5.4 ± 1.1	8.27 ± 1.11 x 10^-8 M	11.6 ± 0.6	21.1 ± 0.1	weak	yes	1.90 ± 2.27 × 10^-6 M	0.7 ± 0.9
